Where two headings read alike, the source gives them in different places.
How the values were obtained:
MRC5 cells = experiment: Cell viability assay in MRC5 cells (MTT)
PAMPA permeability assay = assay type: in vitro ADME; conditions: PAMPA; for recovery at 5 hr, 10 μM: pH 7, PAMPA, donor and acceptor compartments; for Papp at 5 h, 10 μM: pH 7, pH 7, 10 μM
PDGFRβ = PDGFRβ (Homo sapiens (Human), UniProt P09619); experiment: PDGF-BB induced phosphorylation of PDGFRβ in fibroblasts (MRC5 cells, HTRF); assay type: cell-based; conditions: MRC5 cells; n = 1 unless otherwise indicated; read-out: PDGFBB-induced PDGFRβ phosphorylation in MRC5 cells (IC50)
[1] = Pharmacokinetic measurements in mice (intravenous and intra-nasal dosing); assay type: in vivo; conditions: mouse; for concentration at 0.1 h / concentration at 1.5 h / concentration at 24 h: lung, read-out: lung concentration (nM) at time (h)
[2] = Pharmacokinetic measurements in rats (intravenous and intra-tracheal dosing); assay type: in vivo; conditions: rat

Chain of PDGFRβ (P09619 33-1106): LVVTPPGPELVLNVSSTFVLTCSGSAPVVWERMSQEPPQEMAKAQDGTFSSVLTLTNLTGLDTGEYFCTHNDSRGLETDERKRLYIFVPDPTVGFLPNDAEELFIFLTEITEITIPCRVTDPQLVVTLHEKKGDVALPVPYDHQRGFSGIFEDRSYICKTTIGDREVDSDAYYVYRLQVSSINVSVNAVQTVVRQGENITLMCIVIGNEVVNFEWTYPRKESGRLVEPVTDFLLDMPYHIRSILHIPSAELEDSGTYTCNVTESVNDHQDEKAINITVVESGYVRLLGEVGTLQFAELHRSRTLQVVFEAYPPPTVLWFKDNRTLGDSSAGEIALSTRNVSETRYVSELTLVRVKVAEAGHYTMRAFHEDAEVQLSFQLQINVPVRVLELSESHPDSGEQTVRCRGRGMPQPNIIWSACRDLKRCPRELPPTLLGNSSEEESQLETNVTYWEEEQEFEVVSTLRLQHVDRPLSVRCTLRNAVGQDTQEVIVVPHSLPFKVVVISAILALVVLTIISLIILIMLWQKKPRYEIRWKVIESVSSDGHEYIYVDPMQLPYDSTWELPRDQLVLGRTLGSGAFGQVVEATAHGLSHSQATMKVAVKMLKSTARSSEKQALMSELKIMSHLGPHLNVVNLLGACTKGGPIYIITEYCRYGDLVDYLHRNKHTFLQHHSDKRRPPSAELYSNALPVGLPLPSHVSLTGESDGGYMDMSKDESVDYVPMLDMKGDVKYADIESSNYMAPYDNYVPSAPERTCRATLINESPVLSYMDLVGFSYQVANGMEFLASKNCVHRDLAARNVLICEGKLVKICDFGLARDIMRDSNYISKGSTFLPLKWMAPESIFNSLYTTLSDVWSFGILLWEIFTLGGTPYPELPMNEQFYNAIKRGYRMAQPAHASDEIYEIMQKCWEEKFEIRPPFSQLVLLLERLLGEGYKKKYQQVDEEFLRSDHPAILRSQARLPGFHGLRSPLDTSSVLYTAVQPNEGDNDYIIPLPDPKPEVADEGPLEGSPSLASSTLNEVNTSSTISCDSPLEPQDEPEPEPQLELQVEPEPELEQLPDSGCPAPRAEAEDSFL

In the case of `COC(=O)c1cc2c(cc1C)/C(=C(/Nc1ccc(C(=O)NOCCN(C)C)cc1)c1ccccc1)C(=O)N2` [Example 26], the “Cell viability at 100 nM (%)” value (MRC5 cells) is reported as 111.8%, the “Cell viability at 300 nM (%)” value (MRC5 cells) is reported as 111.4% and the “Cell viability at 1000 nM (%)” value (MRC5 cells) is reported as 88%. The recovery at 5 hr, 10 μM (PAMPA permeability assay) was 40.2% and the Papp at 5 h, 10 μM (PAMPA permeability assay) was 0.156 nm/s.

In the case of `COC(=O)c1cc2c(cc1C)/C(=C(/Nc1ccc(C(=O)NOCCN3CCN(C)CC3)c(C)c1)c1ccccc1)C(=O)N2` [Example 28], the “Cell viability at 100 nM (%)” value (MRC5 cells) is reported as 110.2%, the “Cell viability at 300 nM (%)” value (MRC5 cells) is reported as 117% and the “Cell viability at 1000 nM (%)” value (MRC5 cells) is reported as 104.8%. The recovery at 5 hr, 10 μM (PAMPA permeability assay) was 69% and the Papp at 5 h, 10 μM (PAMPA permeability assay) was 0.0407 nm/s.

With `COC(=O)c1cc2c(cc1C)/C(=C(/Nc1ccc(S(=O)(=O)NOCCN(C)C)cc1)c1ccccc1)C(=O)N2` [Example 48] the “Cell viability at 100 nM (%)” value (MRC5 cells) was 132.6%, the “Cell viability at 300 nM (%)” value (MRC5 cells) was 121% and the “Cell viability at 1000 nM (%)” value (MRC5 cells) was 103.5%. It also gave a recovery at 5 hr, 10 μM (PAMPA permeability assay) of 67.4% and a Papp at 5 h, 10 μM (PAMPA permeability assay) of 2.2 nm/s.

In the case of `COC(=O)c1cc2c(cc1C)/C(=C(/Nc1ccc(C(=O)NOCCCN3CCC(OC)CC3)cc1)c1ccccc1)C(=O)N2` [Example 55], the “Cell viability at 100 nM (%)” value (MRC5 cells) is reported as 106.7%, the “Cell viability at 300 nM (%)” value (MRC5 cells) is reported as 111.1% and the “Cell viability at 1000 nM (%)” value (MRC5 cells) is reported as 92.3%. The recovery at 5 hr, 10 μM (PAMPA permeability assay) was 59.1% and the Papp at 5 h, 10 μM (PAMPA permeability assay) was 1.54 nm/s.

In the case of `COC(=O)c1cc2c(cc1C)/C(=C(/Nc1ccc(C(=O)N(C)OCCN3CCN[C@@H](C)C3)cc1)c1ccccc1)C(=O)N2` [Example 62], the “Cell viability at 100 nM (%)” value (MRC5 cells) is reported as 80.7%, the “Cell viability at 300 nM (%)” value (MRC5 cells) is reported as 73.8% and the “Cell viability at 1000 nM (%)” value (MRC5 cells) is reported as −0.2%. It also gave a recovery at 5 hr, 10 μM (PAMPA permeability assay) of 72.8% and a Papp at 5 h, 10 μM (PAMPA permeability assay) of 0.0628 nm/s.

For `COC(=O)c1cc2c(cc1C)/C(=C(/Nc1ccc(C(=O)N(C)OCCN3CCN[C@H](C)C3)cc1)c1ccccc1)C(=O)N2` [Example 65], the “Cell viability at 100 nM (%)” value (MRC5 cells) was 118.6%, the “Cell viability at 300 nM (%)” value (MRC5 cells) was 110.3% and the “Cell viability at 1000 nM (%)” value (MRC5 cells) was 70.5%.

For `CCN(OCCN1CCNCC1)C(=O)c1ccc(N/C(=C2\C(=O)Nc3cc(C(=O)OC)c(C)cc32)c2ccccc2)cc1` [Example 68], the IC50 (PDGFRβ) was 0.0165 µM.

For `COC(=O)c1cc2c(cc1C)/C(=C(/Nc1ccc(C(=O)N(OCCN3CCNCC3)C(C)C)cc1)c1ccccc1)C(=O)N2` [Example 69], the “Cell viability at 100 nM (%)” value (MRC5 cells) was 92.5%, the “Cell viability at 300 nM (%)” value (MRC5 cells) was 93.1% and the “Cell viability at 1000 nM (%)” value (MRC5 cells) was 74.0%. It also gave an IC50 (PDGFRβ) of 0.0143 µM.

In the case of `COC(=O)c1cc2c(cc1C)/C(=C(/Nc1ccc(C(=O)NOCCN3CCNC(=O)C3)cc1)c1ccccc1)C(=O)N2` [Example 70], the “Cell viability at 100 nM (%)” value (MRC5 cells) is reported as 91.7%, the “Cell viability at 300 nM (%)” value (MRC5 cells) is reported as 99.7% and the “Cell viability at 1000 nM (%)” value (MRC5 cells) is reported as 94.0%. The IC50 (PDGFRβ) was 0.00998 µM.

`CNC(=O)CN1CCN(CCON(C)C(=O)c2ccc(N/C(=C3\C(=O)Nc4cc(C(=O)OC)ccc43)c3ccccc3)cc2)CC1` [Example 71] showed an IC50 (PDGFRβ) of 0.0232 µM.

`CNC(=O)CN1CCN(CCONC(=O)c2ccc(N/C(=C3\C(=O)Nc4cc(C(=O)OC)ccc43)c3ccccc3)cc2)CC1` [Example 72] gave an IC50 (PDGFRβ) of 0.0367 µM.

In the case of `CNC(=O)CN1CCN(CCONC(=O)c2ccc(N/C(=C3\C(=O)Nc4cc(C(=O)OC)c(C)cc43)c3ccccc3)cc2)CC1` [Example 73], the “Cell viability at 100 nM (%)” value (MRC5 cells) is reported as 82.9%, the “Cell viability at 300 nM (%)” value (MRC5 cells) is reported as 104% and the “Cell viability at 1000 nM (%)” value (MRC5 cells) is reported as 96.8%.

For `COC(=O)c1ccc2c(c1)NC(=O)/C2=C(\Nc1ccc(N(C)C(=O)CN2CCN(C)CC2)cc1)c1ccccc1` [Nintedanib, reference compound], the “Cell viability at 100 nM (%)” value (MRC5 cells) was 104.6%, the “Cell viability at 300 nM (%)” value (MRC5 cells) was 105.6% and the “Cell viability at 1000 nM (%)” value (MRC5 cells) was 92.7%. It also gave a concentration at 0.1 h ([1]; male, C57BL/6J, iv, i.v. dosing, 0.1 h, mean) of 2380 nM, a concentration at 1.5 h ([1]; male, C57BL/6J, iv, i.v. dosing, 1.5 h, mean) of 1340 nM and a concentration at 24 h ([1]; male, C57BL/6J, iv, i.v. dosing, mean) of 10 nM. The concentration at 0.1 h ([1]; male, C57BL/6J, other: intra-nasal, i.n. dosing, 0.1 h, mean) was 2760 nM, the concentration at 1.5 h ([1]; male, C57BL/6J, other: intra-nasal, i.n. dosing, 1.5 h, mean) was 804 nM and the concentration at 24 h ([1]; male, C57BL/6J, other: intra-nasal, i.n. dosing, mean) was 15 nM. It also gave a clearance ([1]; male, C57BL/6J, whole blood, iv) of 4.86 L/h/kg, an MRT ([1]; male, C57BL/6J, whole blood, iv, i.v. dosing, mean) of 2 h and a Vd ([1]; male, C57BL/6J, whole blood, iv, i.v. dosing, mean, read-out: Vss) of 10 L/kg. The half-life ([1]; male, C57BL/6J, whole blood, iv, i.v. dosing, mean, read-out: t½ (converted)) was 2 h, the “BAL % administered dose at time (h)” value ([1]; i.n. dosing, 0.1 h) was 0.5% and the “BAL % administered dose at time (h)” value ([1]; i.n. dosing, 1.5 h) was 0.1%. The “BAL % administered dose at time (h)” value ([1]; i.v. dosing, 0.1 h) was 0.3%, the “BAL % administered dose at time (h)” value ([1]; i.v. dosing, 1.5 h) was 0.03% and the “i.t. BAV (%)” value ([2]; i.t. dosing (i.t. dose 0.1-0.5 per compound)) was 43%. For the same molecule, the “BAL % administered dose at time (h)” value ([2]; i.t. dosing, 0.1 h) was 2%, the “BAL % administered dose at time (h)” value ([2]; i.t. dosing, 1.5 h) was 1% and the “BAL % administered dose at time (h)” value ([2]; i.t. dosing, 24 h) was 0.1%. The “BAL % administered dose at time (h)” value ([2]; i.v. dosing, 0.1 h) was 0.06%, the “BAL % administered dose at time (h)” value ([2]; i.v. dosing, 1.5 h) was 0.03% and the “BAL % administered dose at time (h)” value ([2]; i.v. dosing, 24 h) was “BQL”.

— US11046672B2, “Indolinones compounds and their use in the treatment of fibrotic diseases” (RESPIVERT LIMITED, priority 2015, dated 2021)
